According to patent US5066655A (priority 1989, dated 1991):
Values belong to the compound of their own block, whether it stands above or below them.

Tests used:
coronary A2 receptors = conditions: cited from earlier work
[1] = molecular target: A2 receptors of human platelets (Homo sapiens, UniProt P29274); test: Antagonism of NECA-induced stimulation of adenylate cyclase activity of human platelet membranes; format: biochemical; conditions: for antagonist potency at platelet A2 receptor: human platelet membranes, NECA-stimulated adenylate cyclase, result in words
Sequence of A2 receptors of human platelets (P29274 whole entry): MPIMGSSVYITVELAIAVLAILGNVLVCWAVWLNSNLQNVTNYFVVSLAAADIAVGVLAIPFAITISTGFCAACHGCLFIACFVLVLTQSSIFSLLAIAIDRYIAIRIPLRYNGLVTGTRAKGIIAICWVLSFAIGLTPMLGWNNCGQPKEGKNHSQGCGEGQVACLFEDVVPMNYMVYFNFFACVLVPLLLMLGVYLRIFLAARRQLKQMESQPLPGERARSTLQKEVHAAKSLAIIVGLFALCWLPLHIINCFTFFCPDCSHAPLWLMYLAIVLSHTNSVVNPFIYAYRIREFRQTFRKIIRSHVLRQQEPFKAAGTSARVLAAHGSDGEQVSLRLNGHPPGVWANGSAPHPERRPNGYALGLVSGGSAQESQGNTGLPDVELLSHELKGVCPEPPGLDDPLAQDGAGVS
Description: (§1) Human platelet, rat pheochromocytoma (PC12) cell, rat fat cell and rat cerebral cortex membranes were prepared as described (4,5,6). Adenylate cyclase activity and binding [^3 H]PIA to cerebral cortex membranes were determined essentially as described (4,5,6). KB values for the compounds were determined as described (4). […] EC50 and IC50 values for the agonists were obtained from the concentration-response curves by linear regression after logit-log transformation. KB values of the antagonists were calculated using the Schild equation KB =C/(CR-1), where C denotes the concentration of the competitor and CR the ratio of the EC50 and IC50 values in the presence and absence, respectively, of the competitor. IC50 of the compounds for inhibition of [^3 H]PIA binding to cerebral cortex membranes were transformed into Ki values as described (6).
In these cells, A2 receptor-mediated stimulation of adenylate cyclase results in an inhibition of aggregation (5,7).

[2] = tested on: adenosine receptor in human fibroblast cell line; conditions: cited from earlier work
[3] = molecular target: T1, A1 receptors of rat fat cells (Rattus norvegicus, UniProt P25099); test: Antagonism of R-PIA-induced inhibition of rat fat cell adenylate cyclase activity; format: biochemical; conditions: rat fat cell membranes, result in words
T1 sequence (P25099 1-326): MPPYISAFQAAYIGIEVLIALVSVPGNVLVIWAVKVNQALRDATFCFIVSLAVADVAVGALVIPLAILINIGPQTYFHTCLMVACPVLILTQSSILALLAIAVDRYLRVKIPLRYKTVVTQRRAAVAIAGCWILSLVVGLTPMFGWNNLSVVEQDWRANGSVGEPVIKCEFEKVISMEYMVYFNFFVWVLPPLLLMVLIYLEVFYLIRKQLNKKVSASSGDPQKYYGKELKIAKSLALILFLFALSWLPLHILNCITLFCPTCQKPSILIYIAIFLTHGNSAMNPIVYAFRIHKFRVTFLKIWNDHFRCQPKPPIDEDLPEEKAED
Description: as §1

[4] = tested on: A2 receptors of rat pheochromocytoma (PC12) cells; test: Antagonism of NECA-induced stimulation of adenylate cyclase activity of PC12 cell membranes; format: biochemical; conditions: NECA-stimulated adenylate cyclase, result in words
Description: as §1

A1 receptors = molecular target: T2, A1 receptors (Rattus norvegicus, UniProt P25099); test: Activity at A1 adenosine receptors (overall, fat cells and brain membranes); format: biochemical; conditions: discussion, fat cell and brain data
T2 sequence (P25099 1-326): T1 sequence (P25099 1-326)
Description: as §1

[5] = molecular target: T3, A1 adenosine receptor (guinea pig atrium) (Cavia porcellus, UniProt P47745); test: Antagonism of adenosine agonists in isolated guinea pig left atrium (force of contraction); conditions: guinea pig atria, result in words
T3 construct: The left atria from male guinea pigs were isolated; from tissue; host or cells: left atria of male guinea pigs
T3 sequence (P47745 1-326): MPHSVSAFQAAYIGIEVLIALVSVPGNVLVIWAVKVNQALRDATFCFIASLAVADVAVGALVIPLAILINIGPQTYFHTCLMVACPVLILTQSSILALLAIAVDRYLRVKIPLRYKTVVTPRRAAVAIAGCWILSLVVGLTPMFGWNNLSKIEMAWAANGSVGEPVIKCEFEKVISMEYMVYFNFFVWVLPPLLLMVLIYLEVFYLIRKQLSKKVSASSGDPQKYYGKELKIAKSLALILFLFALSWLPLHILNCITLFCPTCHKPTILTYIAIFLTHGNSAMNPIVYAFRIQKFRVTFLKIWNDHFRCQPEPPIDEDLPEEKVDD
Description: The left atria from male guinea pigs were isolated, suspended between two punctate electrodes, and placed in a 20 ml organ bath that contained Krebs-Hensileit solution that was continuously gassed with 95% O2 + 5% CO2 and maintained at 31° C. The resting tension was one gram. Theatria were stimulated electrically at 1 hz, 1 ms duration pulses at supramaximal voltage. The force of contraction was recorded isometrically.
(§2) The ability of the compounds to antagonize the effects of agonists was analyzed using modified Schild plots.

[6] = tested on: A1 and A2 adenosine receptors; test: Activity at adenosine receptors, A1 versus A2 selectivity (overall); format: biochemical; conditions: in words
Description: as §1

[7] = molecular target: T4, A1 receptors of rat cerebral cortex membranes (Rattus norvegicus, UniProt P25099); test: Inhibition of [3H]PIA binding to rat cerebral cortex membranes
T4 sequence (P25099 1-326): T1 sequence (P25099 1-326)
Description: as §1

[8] = tested on: A2 adenosine receptor (guinea pig taenia caecum); test: Antagonism of adenosine agonists in isolated guinea pig taenia caecum (contractile tone)
Description: Taenia from the guinea pig caecum were cut into lengths of 1.5-2 cm. The tissues were suspended in a 20 ml organ bath containing de Jalon's solution that was gassed with 95% O2 + 5% CO2 and maintained at 31° C. The resting tension was 1.5 g. The contractile response was measured isotonically.
as §2

A2 receptors = conditions: literature; cited from earlier work

Compound: OC[C@H]1O[C@@H](n2cnc3c(Oc4ccccc4)ncnc32)[C@H](O)[C@@H]1O [6-phenoxypurine riboside]
- activity at coronary A2 receptors (coronary A2 receptors): inactive or nearly so

Compound: Nc1ncnc2nc[nH]c12 [Example 1, Adenine, reference compound]
- antagonist potency at platelet A2 receptor [1]: very weak antagonist
- effect on basal adenylate cyclase activity ([1]; human platelets, data not shown): does not affect basal adenylate cyclase activity
- specific, competitive antagonism of cyclic AMP accumulation ([2]; adenosine-induced, human fibroblast cell line): specific, competitive antagonist
- Ki ([2]; competitive antagonism of adenosine-induced cyclic AMP accumulation, human fibroblast cell line): 200 µM
- antagonist potency at A1 receptors of fat cells [3]: does not affect R-PIA-induced inhibition of fat cell adenylate cyclase activity
- antagonist potency at A2 receptor of PC12 cells [4]: very weak antagonist

Compound: Cn1cnc2c(N)ncnc21 [Example 2, 9-Methyladenine, reference compound]
- antagonist potency at platelet A2 receptor [1]: more potent than the adenine itself
- potency increase by methylation of adenine at the 9-position ([2]; relative to adenine): about 4 fold
- antagonist potency at A1 receptors of fat cells [3]: antagonizes the effect of R-PIA

Compound: CCNC(=O)[C@H]1O[C@@H](n2cnc3c(N)ncnc32)[C@H](O)[C@@H]1O [NECA, 5'-N-ethylcarboxamido-adenosine]
- potency at A2 receptors, in words (A2 receptors): more potent than N^6 -substituted analogs at A2 receptors

Now from value to compound, other results behind:

- antagonism of adenosine agonists in atria [5]: competitive antagonists
- antagonist potency at platelet A2 receptor [1]: more potent than 9-methyladenine itself
- potency at adenosine receptors (subtype not stated) [6]: more potent than 9-methyladenine
- receptor selectivity A1 versus A2 ([6]; listed as N^6 -Cyclopentyl): selective for A1 receptors
- receptor selectivity A1 versus A2 ([6]; listed as cyclopentyl-): selective for receptors
- inhibition of [3H]PIA binding (Ki), in words [7]: more potent
Compound: Cn1cnc2c(NC3CCCC3)ncnc21 [Example 4, N^6 -Cyclopentyl-9-MA]
- activity at A1 receptors, in words (A1 receptors): most potent of N^6 -substituted 9-methyladenines at A1 receptors
- potency at platelet A2 receptor relative to PC12 A2 receptor ([1]; human platelets versus rat PC12 cells): more potent at the platelet A2 receptor than at the PC12 A2 receptor
- antagonist potency at A1 receptors of fat cells [3]: more potent than the parent compound 9-methyladenine
- antagonism of adenosine agonists in taenia caecum ([8]; guinea pig taenia caecum relaxation): did not competitively antagonize the effects of adenosine agonists
- sensitization of the tissue ([8]; guinea pig taenia caecum, high concentrations): some sensitization of the tissue

- activity at A1 receptors, in words (A1 receptors): reduces activity at A1 receptors
- receptor selectivity A1 versus A2 [6]: selective for receptors
- antagonist potency at A1 receptors of fat cells [3]: less potent
Compound: Cn1cnc2c(NC3(C)CCCC3)ncnc21 [Example 5, N^6 -Methylcyclopentyl-9-MA]
- antagonist potency at platelet A2 receptor [1]: less potent than the parent cyclopentyl analog
- antagonist potency at A2 receptor of PC12 cells [4]: reduces potency in PC12 cells
